For two compounds, IC50 and EC50 results are on record in patent US9452225B2, “GLP-1 prodrugs” (Novo Nordisk A/S, priority 2012, dated 2016).

Assay [1] has as its target T1, human GLP-1 receptor (Homo sapiens, UniProt P43220).
T1 construct: expressed in transfected cells; host or cells: BHK cells, clone FCW467-12A (parent line BHKTS13), membranes
As to the kind of experiment: GLP-1 receptor binding, SPA displacement of 125I-GLP-1, low albumin. The following applies: low albumin (0.005% HSA). Here is the method:
The purpose of this experiment is to test the receptor binding activity of the GLP-1 parent drugs of the prodrugs of the invention. The receptor binding is a measure of affinity of a parent drug for the human GLP-1 receptor. The parent GLP-1 drugs of Examples B2.1, B2.2, B2.3, B2.4, and B2.5 were tested as described below.
The receptor binding of the GLP-1 drugs to the human GLP-1 receptor was measured in a competitive binding assay. In this type of assay a labelled ligand (in this case ^125I-GLP-1) is bound to the receptor. Each drug is added in a series of concentrations to isolated membranes containing the human GLP-1 receptor and displacement of the labelled ligand is monitored. The receptor binding is reported as the concentration at which half of the labelled ligand is displaced from the receptor, the IC50 value. […]
The cells were grown at 5% CO2 in DMEM, 10% fetal calf serum, 1% Pen/Strep (Penicillin/Streptomycin) and 1.0 mg/ml of the selection marker G418. […] The resulting pellet was re-suspended in buffer 2 and the protein concentration was determined. […]
(Displacement assays read how much labelled ligand stays bound in the presence of the test substance.)

For assay [2], the target named is T1, human GLP-1 receptor. As to the kind of experiment: In vitro potency, CRE luciferase reporter gene assay in whole BHK cells. The assay is classed as cell-based. The conditions noted are these: 0% HSA. Here is the method:
The purpose of this example is to test the activity, or potency, of, for example, the GLP-1 parent drugs of the prodrugs of the invention. The in vitro potency is the measure of human GLP-1 receptor activation in a whole cell assay. This method is an alternative to the method of Example 8.
In vitro potency was determined by measuring the response of the human GLP-1 receptor in a reporter gene assay. The assay was performed in a stably transfected BHK cell line that expresses the human GLP-1 receptor and contains the DNA for the cAMP response element (CRE) coupled to a promoter and the gene for firefly luciferase (CRE luciferase). When the human GLP-1 receptor is activated it results in the production of cAMP, which in turn results in the luciferase protein being expressed. When assay incubation is completed the luciferase substrate (luciferin) is added and the enzyme converts luciferin to oxyluciferin to produce bioluminescence. The luminescence is measured as the readout for the assay.
In order to test the binding of the derivatives to albumin, the assay may if desired be performed in the absence of serum albumin as well as in the presence of a considerably higher concentration of serum albumin (1.0% final assay concentration). […]
3) The cells were counted and adjusted to 5×10^3 cells/50 μl (1×10^5 cells/ml) in Assay Medium. […]
On the technique in general: Reporter assays use an easily measured gene product as a stand-in for the process of interest.

Numbered stars: 1 amine (or outer) side, 2 acyl side, 3 side chain; on linkers, the order of the positions; unused ones are H or OH. Square brackets hold non-standard residues; d marks the D form. Side chains are listed from the residue outwards. Peptide text beside a SMILES is read from it. * marks the point of attachment. Lactoyl(3-(imidazol-4-yl)) = O=C([C@@H](O)Cc1c[nH]cn1)*; C18 diacid = O=C(O)CCCCCCCCCCCCCCCCC(=O)*; γGlu = O=C(O)[C@H](CCC(=O)[*:2])N[*:1]; AEEA = NCCOCCOCC(=O)O; Aib = CC(C)(N)C(=O)O

T1 sequence (P43220 24-463): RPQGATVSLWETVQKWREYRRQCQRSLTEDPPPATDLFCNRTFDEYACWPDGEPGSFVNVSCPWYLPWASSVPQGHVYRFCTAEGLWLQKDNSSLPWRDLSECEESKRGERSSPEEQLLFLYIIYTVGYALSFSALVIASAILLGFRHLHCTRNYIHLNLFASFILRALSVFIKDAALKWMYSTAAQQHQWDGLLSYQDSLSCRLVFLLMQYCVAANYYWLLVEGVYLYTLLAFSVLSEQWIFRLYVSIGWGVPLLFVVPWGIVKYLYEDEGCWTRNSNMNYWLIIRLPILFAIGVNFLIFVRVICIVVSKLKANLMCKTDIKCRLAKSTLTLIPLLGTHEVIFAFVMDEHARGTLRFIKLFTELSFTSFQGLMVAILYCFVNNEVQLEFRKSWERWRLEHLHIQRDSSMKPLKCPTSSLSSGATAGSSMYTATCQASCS

The IC50 is the concentration that gives 50% inhibition. A low value points to inhibition by little substance. What is called EC50 is the concentration needed to bring the measured effect to its halfway point. A high value points to lower potency in that assay. For the compound `CC[C@H](C)[C@H](NC(=O)[C@H](Cc1ccccc1)NC(=O)[C@H](CCCCNC(=O)COCCOCCNC(=O)COCCOCCNC(=O)CC[C@H](NC(=O)CCCCCCCCCCCCCCCCC(=O)O)C(=O)O)NC(=O)[C@H](CCCNC(=N)N)NC(=O)[C@H](C)NC(=O)[C@H](C)NC(=O)[C@H](CCC(N)=O)NC(=O)[C@H](CCC(=O)O)NC(=O)[C@H](CCC(=O)O)NC(=O)[C@H](CC(C)C)NC(=O)[C@H](Cc1ccc(O)cc1)NC(=O)[C@H](CO)NC(=O)[C@H](CO)NC(=O)[C@@H](NC(=O)[C@H](CC(=O)O)NC(=O)[C@H](CO)NC(=O)[C@@H](NC(=O)[C@H](Cc1ccccc1)NC(=O)[C@@H](NC(=O)CNC(=O)[C@H](CCC(=O)O)NC(=O)C(C)(C)NC(=O)[C@@H](O)Cc1c[nH]cn1)[C@@H](C)O)[C@@H](C)O)C(C)C)C(=O)N[C@@H](C)C(=O)N[C@@H](Cc1c[nH]c2ccccc12)C(=O)N[C@@H](CC(C)C)C(=O)N[C@H](C(=O)N[C@@H](CCCNC(=N)N)C(=O)NCC(=O)N[C@@H](CCCNC(=N)N)C(=O)NCC(=O)O)C(C)C` [Example B2.4, N^ε27 [(S)-(22,40-dicarboxy-10,19,24-trioxo-3,6,12,15-tetraoxa-9,18,23-triazatetracontan-1-oyl)]-N^α8-{3-[(2S)-2-hydroxy-3-(1H-imidazol-4-yl)propanoyl}-Aib^8,Glu^22,Arg^26,Lys^27,Arg^34]-GLP-1-(8-37)-peptide] ({Lactoyl(3-(imidazol-4-yl))}-[Aib]EGTFTSDVSSYLEEQAARK([AEEA-AEEA-γGlu-C18 diacid])FIAWLVRGRG-OH; C-terminus assumed), on human GLP-1 receptor [1], the half-maximal inhibitory concentration (IC50) worked out at 0.09 nM. This compound also returned an EC50 on human GLP-1 receptor [2] of 4 pM.

At human GLP-1 receptor [1], `CC[C@H](C)[C@H](NC(=O)[C@H](Cc1ccccc1)NC(=O)[C@H](CCC(=O)O)NC(=O)[C@H](CCCCNC(=O)COCCOCCNC(=O)COCCOCCNC(=O)CC[C@H](NC(=O)CCCCCCCCCCCCCCCCC(=O)O)C(=O)O)NC(=O)[C@H](C)NC(=O)[C@H](C)NC(=O)[C@H](CCCNC(=N)N)NC(=O)CNC(=O)[C@H](CCC(=O)O)NC(=O)[C@H](CC(C)C)NC(=O)[C@H](Cc1ccc(O)cc1)NC(=O)[C@H](CO)NC(=O)[C@H](CO)NC(=O)[C@@H](NC(=O)[C@H](CC(=O)O)NC(=O)[C@H](CO)NC(=O)[C@@H](NC(=O)[C@H](Cc1ccccc1)NC(=O)[C@@H](NC(=O)CNC(=O)[C@H](CCC(=O)O)NC(=O)C(C)(C)NC(=O)[C@@H](O)Cc1c[nH]cn1)[C@@H](C)O)[C@@H](C)O)C(C)C)C(=O)N[C@@H](C)C(=O)N[C@@H](Cc1c[nH]c2ccccc12)C(=O)N[C@@H](CC(C)C)C(=O)N[C@H](C(=O)N[C@@H](CCCNC(=N)N)C(=O)NCC(=O)N[C@@H](CCCNC(=N)N)C(=O)NCC(=O)O)C(C)C` [Example B2.5, N^ε26 [(S)-(22,40-dicarboxy-10,19,24-trioxo-3,6,12,15-tetraoxa-9,18,23-triazatetracontan-1-oyl)]-N^α8-{3-[(2S)-2-hydroxy-3-(1H-imidazol-4-yl)propanoyl}-Aib^8,Arg^23,Arg^34]-GLP-1-(8-37)-peptide] ({Lactoyl(3-(imidazol-4-yl))}-[Aib]EGTFTSDVSSYLEGRAAK([AEEA-AEEA-γGlu-C18 diacid])EFIAWLVRGRG-OH; C-terminus assumed) came in with a 50% inhibitory concentration (IC50) of 0.22 nM. On human GLP-1 receptor [2], this compound yielded an EC50 of 31 pM.
